These results are taken from PubChem BioAssay AID1259321 (Sanford-Burnham Center for Chemical Genomics, 2017).

The test concerns the target Nuclear receptor subfamily 1 group D member 1 (Homo sapiens) (UniProt P20393). As to the kind of experiment: modulators of Rev-erb alpha DNA binding, dose response, biochemical, FITC-DNA, fluorescence polarization (AID 1259321). Background: Polarisation of emitted light reports the rotation of a fluorescent probe.

Activity calls are given as the source filed them.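 How the source made its calls: active means half-maximal concentration for changing protein binding to DNA, from the fitted dose curve, below 10 micromolar; inactive means the rest.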

Nuclear receptor subfamily 1 group D member 1 (Homo sapiens), sequence (P20393 whole entry, looked up): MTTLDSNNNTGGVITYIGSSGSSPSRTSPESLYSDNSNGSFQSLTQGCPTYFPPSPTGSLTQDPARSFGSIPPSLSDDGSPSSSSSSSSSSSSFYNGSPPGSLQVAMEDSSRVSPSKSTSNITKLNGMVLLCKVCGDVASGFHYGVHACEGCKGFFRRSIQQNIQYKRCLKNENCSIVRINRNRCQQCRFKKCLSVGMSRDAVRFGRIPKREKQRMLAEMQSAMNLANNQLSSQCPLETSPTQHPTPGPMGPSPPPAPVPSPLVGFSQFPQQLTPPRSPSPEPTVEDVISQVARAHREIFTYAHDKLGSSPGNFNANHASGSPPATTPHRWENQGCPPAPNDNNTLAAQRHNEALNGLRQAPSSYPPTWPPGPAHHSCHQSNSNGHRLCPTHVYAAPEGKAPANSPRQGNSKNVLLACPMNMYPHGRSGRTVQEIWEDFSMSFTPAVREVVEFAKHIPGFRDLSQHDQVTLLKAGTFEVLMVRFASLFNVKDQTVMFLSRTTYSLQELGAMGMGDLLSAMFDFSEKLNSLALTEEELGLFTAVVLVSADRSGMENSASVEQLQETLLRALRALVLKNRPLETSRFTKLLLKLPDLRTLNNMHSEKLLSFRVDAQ

In general, IC50 refers to the point on the concentration scale where inhibition reaches its midpoint. Turning to `CCc1nc2ccccc2c(C(=O)OCc2nc3ccccc3c(=O)[nH]2)c1C`, the IC50 was > 40 µM (inactive). As for `Cc1nc2ccc3nc(NC(=O)c4ccc5c(c4)OCCO5)sc3c2s1`, the IC50 is 9.57 µM.

Take `O=C1c2cccc3c(O)ccc(c23)C(=O)N1c1ccc(Cl)cc1`: the IC50 was 2.42 µM. For `C=CCn1c(=NC(=O)c2cccs2)sc2cc(NC(C)=O)ccc21`, the IC50 result is “inactive”. As to `COc1ccccc1-c1ccc2c(c1)C(C)(Cc1ccccc1C#N)C(=O)N2` (stereo not drawn), the half-inhibitory concentration (IC50) is 7.13 µM. `Cc1ccc(Sc2cnc3ccccc3n2)cc1`: the IC50 result was “inactive”. For the compound `c1ccc2nc(-c3ccc(N4CCOCC4)cc3)ccc2c1`, the IC50 was > 40 µM (inactive). On to `COc1ccc(-c2nc(NC(=O)c3ccc(OCC(=O)Nc4ccc(F)cc4)c(OC)c3)sc2C)cc1`, for which the IC50 is > 40 µM (inactive). The figure for `O=C(CSc1nnc(-c2cccs2)n1-c1ccccc1)N1CCCc2ccccc21` is > 40 µM (inactive); for `CCOC(=O)c1c(NC(=S)Nc2ccc(OC)cc2)sc2c1CCC2` it is 5.93 µM; for `Cc1c(Cl)ccc2c(C(N)=O)cc(-c3ccccn3)nc12` it is 5.97 µM. In the case of `Cc1c(C(=O)Nc2ccncc2)sc2nc(-c3ccc(F)cc3)cn12`, the IC50 is 3.76 µM.

Regarding `O=C(NCc1ccco1)c1ccc(Cn2c(=O)c3sccc3n(Cc3cccc(F)c3)c2=O)cc1`, the IC50 is > 40 µM (inactive). On to `O=C(CCS(=O)(=O)c1ccccc1)Nc1ccccc1-c1nc2ccccc2s1`, for which the IC50 was 0.518 µM. As for `Cc1nn(C)cc1N1C(=O)c2cccc3c(N)ccc(c23)C1=O`, the IC50 entry is “inactive”.

On to `Brc1cc(Br)c2ncnc(N3CCCCC3)c2c1`, for which the IC50 was 0.989 µM.

Regarding `C=CCOc1ccc(/C(O)=C2\C(=O)C(=O)N(CCN(C)C)C2c2cccs2)cc1` (stereo not drawn), the IC50 was 7.38 µM. As for `Cc1ccc(S(=O)(=O)c2nnn3c2nc(N2CCN(c4ccccn4)CC2)c2ccccc23)cc1C`, the figure is 3.36 µM. As for `CCSc1nnc(-c2ccc(Cl)cc2)c2ccccc12`, the figure is 7.11 µM. The figure for `CCOC(=O)c1nnn2c1nc(Nc1cccc(C(F)(F)F)c1)c1ccccc12` is 1.86 µM.

Turning to `CCOc1cc2[nH]c(=S)n(CCC(=O)N3CCc4ccccc4C3)c(=O)c2cc1OCC`, the IC50 result was “inactive”.

Consider `O=C(Nc1cccc(C(F)(F)F)c1)c1cc(Br)cc2c1OCC2`, for which the IC50 is > 40 µM (inactive). `COC(=O)c1cc(-c2cc3ccccc3s2)c(=O)n2c1CCC2`: the IC50 was 7.41 µM. For `COc1ccc(NC(=O)c2sc3nc(N4CCCC4)c4c(c3c2N)CC(C)(C)OC4)cc1`, the IC50 is > 40 µM (inactive). Consider `CCc1nc(SCC(=O)NCc2ccco2)c2c3c(sc2n1)CCCC3`, for which the IC50 result is “inactive”. Regarding `COC(=O)c1ccc2nc(Nc3nc4c(F)cc(F)cc4s3)sc2c1`, the IC50 was 2.14 µM. The figure for `c1ccc(-c2nc(SCc3nc4ccccc4[nH]3)c3oc4ccccc4c3n2)cc1` is 2.4 µM; for `CCOC(=O)CSc1nc2cc(OCC)ccc2cc1C#N` it is 6.06 µM. For the compound `CCn1c(SCC(=O)c2c[nH]c3ccccc23)nnc1-c1cccs1`, the IC50 is > 40 µM (inactive). As for `Cc1ccc2c3c(c(SCC(=O)Nc4nonc4C)nc2c1)CCCC3`, the figure is > 40 µM (inactive); as for `COc1cccc(C(=O)n2ccc3ccc(-c4ccc5ccn(C(=O)c6cccc(OC)c6)c5c4)cc32)c1`, 3.26 µM.

Turning to `O=c1c2ccccc2nc2sc3ccccc3n12`, the IC50 is > 40 µM (inactive). As for `CSc1ccc(CCNC(=O)c2cc(-c3ccccc3)c(N3CCOCC3)s2)cc1`, the figure is 2.74 µM. Take `COc1ccc(-n2nc3c(N4CCC(C(=O)NCc5ccccc5)CC4)nnc(C)c3c2C)cc1`: the IC50 was > 40 µM (inactive). Regarding `Cc1ccc(NC(=S)Nc2nc(CC(=O)Nc3ccccc3)cs2)cc1`, the IC50 was 3.84 µM. Take `O=C(COc1ccccc1)Nc1nc2cc3c(cc2s1)OCCO3`: the IC50 is 4.3 µM. In the case of `CN(C)c1ccc(N=Nc2ccccc2C(=O)OCC(=O)N2CCCCCC2)cc1`, the IC50 result is “inactive”. As for `CC1(Cc2ccccc2OC(F)(F)F)C(=O)Nc2ccc(OC(F)(F)F)cc21` (stereo not drawn), the half-maximal inhibitory concentration (IC50) is 4.19 µM. In the case of `Cc1ccc2nc(N3CCN(c4cccc(C)c4C)CC3)c3nnnn3c2c1`, the IC50 was 7.32 µM. Regarding `CCOC(=O)c1sc(NC(=S)NC(=O)c2ccc(OC)cc2)nc1C`, the IC50 is 2.11 µM. With `c1cnc(SCC2CCCCC2)c(-c2nc3ccccc3[nH]2)c1`, the IC50 is 7.2 µM. For the compound `COc1ccc(-n2c(SCC(=O)NC3CCCCC3)nc3ccsc3c2=O)cc1`, the IC50 was 5.08 µM.

`COc1ccc(C)cc1Nc1nc(-c2ccccc2O)nc2ccccc12`: the half-maximal inhibitory concentration (IC50) is 4.05 µM. The figure for `COc1ccc(/C=C2\SC(=S)N(CCCC(=O)NC3CCCC3)C2=O)cc1OC` is > 40 µM (inactive); for `CCOc1cc(N(CC)CC)ccc1/C=C(/C#N)c1nc2ccccc2[nH]1` it is “inactive”; for `Cc1ccc(-c2csc3nc[nH]c(=S)c23)cc1C` it is 2.1 µM. Turning to `CCN(CC)c1ccc(/C=C/c2cccc[n+]2C)c(OC)c1`, the IC50 is 7.32 µM. In the case of `C=CCn1c(SCC(=O)Nc2sccc2C#N)nc2sc(C)c(C)c2c1=O`, the IC50 is > 40 µM (inactive). As to `Oc1ccc2ccc3cccc[n+]3c2c1`, the IC50 was > 40 µM (inactive). As for `Cc1cccc(Nc2nn3c(=O)c4ccccc4nc3s2)c1`, the IC50 is 4.11 µM. For the compound `CNC(=O)c1ccsc1NC(=O)c1sc2ccccc2c1Cl`, the IC50 entry is “inactive”. As for `COCCN1C(=O)/C(=C/c2ccc(N3CCCC3)cc2C)SC1=S`, the figure is 6.19 µM. As to `COc1ccc2cc(C#N)c(Nc3cccc(F)c3)nc2c1`, the IC50 was 7.69 µM. Consider `COc1cc(-c2ccc3c(=O)c4ccccc4sc3c2)cc(OC)c1OC`, for which the IC50 was 2.86 µM. For the compound `Cc1ccc(Oc2nccc(-c3ccc(Cl)cc3)n2)cc1`, the half-maximal inhibitory concentration (IC50) is 7.31 µM. As for `CN(CC(=O)Nc1ccc(Cl)cc1)S(=O)(=O)c1ccc2c(c1)n(C)c(=O)c(=O)n2C`, the concentration for half-maximal inhibition (IC50) is 5.44 µM. Turning to `CCCn1c(N)c(C(=O)CSc2nc(C)nc3sc(C)c(C)c23)c(=O)[nH]c1=O`, the IC50 was > 40 µM (inactive). The figure for `C/C(=N\NC(=O)COc1cccc(C)c1)c1ccc2ccccc2c1O` is 7.63 µM. For `N#CCCN(CCC#N)S(=O)(=O)c1ccc(C(=O)Nc2nc(-c3ccccc3)c(C(=O)c3ccccc3)s2)cc1`, the IC50 was > 40 µM (inactive). Regarding `O=C(CSc1ncnc2c1sc1ccccc12)Nc1ccc(Br)cc1`, the IC50 is 2.97 µM. Regarding `Nc1ccc2cc3ccc(N)cc3nc2c1`, the IC50 is > 40 µM (inactive). As for `CCOC(=O)c1c(-c2ccccc2)csc1NC(=O)c1cc(S(=O)(=O)N2CCOCC2)ccc1C`, the IC50 is 4.51 µM.

For the compound `CC1=Nc2ccccc2/C1=C/c1sc(=S)n(-c2cccc(C(=O)O)c2)c1O`, the IC50 was > 40 µM (inactive). For the compound `CCN1C(=O)C(=CC=CN(C)c2ccccc2)SC1=S`, the IC50 result was “inactive”.

As to `CCCCOC(=O)CSc1nc(N)c(C#N)c(-c2ccc(OCC)cc2)c1C#N`, the IC50 entry was “inactive”. As to `O=C(CCCn1c(=S)[nH]c2cc3c(cc2c1=O)OCO3)NCc1ccccc1Cl`, the IC50 entry was “inactive”. For the compound `O=c1oc2ccccc2c(NC(c2ccccc2)c2ccccc2)c1[N+](=O)[O-]`, the IC50 is > 40 µM (inactive). With `O=c1c2ccccc2[nH]c(=S)n1Cc1ccc2c(c1)OCO2`, the half-maximal inhibitory concentration (IC50) was 2.5 µM. Turning to `COc1ccccc1CC1(C)C(=O)Nc2ccc(OC(F)(F)F)cc21` (stereo not drawn), the IC50 was > 40 µM (inactive). In the case of `CCc1nnc(NC(=O)c2oc3ccc(Br)cc3c2C)s1`, the half-maximal inhibitory concentration (IC50) is 6.22 µM. In the case of `COc1ccc(CNC(=O)C2CCC(CNS(=O)(=O)c3cccc4nsnc34)CC2)cc1` (stereo not drawn), the concentration for half-maximal inhibition (IC50) was 8.16 µM.

Consider `Cc1nn(C)c(C)c1NC(=O)CSc1nc(-c2ccccc2F)nc2c1cnn2-c1ccccc1`, for which the 50% inhibitory concentration (IC50) is 3.21 µM. As for `Cc1ccc(S(=O)(=O)c2nnn3c2nc(N2CCN(c4ccccn4)CC2)c2ccccc23)cc1`, the figure is 0.876 µM.

With `CC1(C)Cc2c(sc3c2c(N)nc(=S)n3Cc2ccc(Br)cc2)CO1`, the IC50 result was “inactive”. For the compound `COc1cc(OC)cc(-c2c(C#Cc3ccsc3)c3cc(-c4ccc(SC)cc4)ccc3n2C)c1`, the IC50 is 7.92 µM. The figure for `CCOC(=O)c1nn(-c2ccc(Cl)cc2)c2nc(-c3ccc(C)cc3)c(C#N)c(=O)n12` is 2 µM; for `O=C(Nc1ccc(O)c(-c2nc3ccccc3s2)c1)C1=COCCO1` it is “inactive”; for `CCC(=O)c1cn(CC(=O)Nc2cccc(C)c2)c2ccccc12` it is > 40 µM (inactive).

On to `O=S(=O)([N-]c1nc2ccccc2nc1-n1cc[n+](Cc2ccccc2)c1)c1ccc(Br)cc1`, for which the half-inhibitory concentration (IC50) was 1.06 µM. `Cc1cc(C)c2nc(SCC(=O)NCC3CCCO3)c(C#N)cc2c1` (stereo not drawn): the IC50 result is “inactive”. For `CCOc1ccccc1NC(=O)c1nnn(CC(=O)Nc2cc(C)cc(C)c2)c1N`, the IC50 was > 40 µM (inactive).

Regarding `CCC(=O)c1ccc(OCC(=O)Nc2ccccc2C(=O)NC2CC2)cc1`, the IC50 was 4.7 µM. `Cc1nc(SCC(=O)Nc2ccc(F)cc2)c2oc3ccccc3c2n1`: the IC50 entry is “inactive”. The figure for `O=C(CSc1ncnc2c1oc1ccccc12)Nc1cccc(Cl)c1` is 4.59 µM.

In the case of `Cc1ccc(-c2nnc(NCc3nc4ccccc4[nH]3)c3ccccc23)cc1S(=O)(=O)N(C)C`, the IC50 result is “inactive”.

Regarding `COc1ccccc1-c1nc(SCC(=O)N(C)c2ccccc2)c2c(=O)n(C)c(=O)n(C)c2n1`, the IC50 was 3.13 µM. Consider `Cc1ccc(-c2c(C#N)c(N)n(-c3ccc(Cl)cc3)c(=O)c2C#N)cc1`, for which the IC50 result was “inactive”. Turning to `COc1ccc(NC(=O)NNC(=O)COc2ccc3cc(Br)ccc3c2)c(OC)c1`, the IC50 was > 40 µM (inactive). As for `COc1cc2oc(=O)cc(-c3ccc(-c4ccc(CO)cc4)cc3)c2c(OC)c1OC`, the figure is 5.84 µM; as for `CN(C)c1ccc(/C=C/c2cc[n+](C)cc2)cc1`, 3.47 µM. On to `Cc1ccc2c(c1C)NC(=O)CC(c1ccccc1O)=N2`, for which the IC50 is > 40 µM (inactive). Take `Cc1ccc(-n2c(SCC(=O)Nc3cccc(C)c3)nc3c(oc4ccccc43)c2=O)cc1`: the IC50 is 2.18 µM. For the compound `O=C(CSc1nc2c(c(C(F)(F)F)n1)CCc1ccccc1-2)NCc1ccccc1`, the half-inhibitory concentration (IC50) is 4.21 µM.
